Like-named read-outs stand apart in the source and are kept apart here. Each block holds one compound with its values, some of them ahead of it.
Assays:
[1] = cited from earlier work
plasma proteins = conditions: subjects with normal kidney function; effects of uremia not examined; cited from earlier work
[2] = In vitro hemodialysis of uremic plasma using dialysate solutions with and without added vitamins
[3] = cited from earlier work; remark: listed apart in the source
[4] = subjects with normal renal function; cited from earlier work
[5] = cited from earlier work; remark: listed apart in the source
[6] = vitamin in the dialysate 0 μg/L
[7] = vitamin in the dialysate 60 μg/L
[8] = vitamin in the dialysate 600 μg/L
[9] = vitamin in the dialysate 15 μg/L
[10] = vitamin in the dialysate 150 μg/L

Plasma concentration of the vitamin after dialysis for 0 min (Baseline) [2, 6]: 17 ng/mL
Plasma concentration of the vitamin after dialysis for 90 min [2, 6]: 3.6 ng/mL
Plasma concentration of the vitamin after dialysis for 0 min (Baseline) [2, 7]: 17 ng/mL
Plasma concentration of the vitamin after dialysis for 90 min [2, 7]: 72 ng/mL
Ratio of Plasma to dialysate at the end of dialysis (VP/VD) [2, 7]: 1.2
Plasma concentration of the vitamin after dialysis for 0 min (Baseline) [2, 8]: 17 ng/mL
Plasma concentration of the vitamin after dialysis for 90 min [2, 8]: >100 ng/mL
Compound: Cc1ncc(C[n+]2csc(CCO)c2C)c(N)n1 [Thiamine, thiamine]
Whole blood thiamine in hemodialysis patients receiving supplementation in high doses ([1]; 600-900 mg thiamine per week, predialysis, mean ± SD): 50 ± 12 µg/L
Fraction of the plasma content that is protein bound (binding in words) (plasma proteins): albumin

Compound: Cc1ncc(COP(=O)(O)O)c(C=O)c1O [Pyridoxal 5′-phosphate (vit B6), pyridoxal 5-phosphate]
Fraction of the plasma content that is protein bound (binding in words) (plasma proteins): albumin

Plasma concentration of the vitamin after dialysis for 0 min (Baseline) [2, 6]: 5.8 ng/mL
Plasma concentration of the vitamin after dialysis for 45 min [2, 6]: 1.7 ng/mL
Plasma concentration of the vitamin after dialysis for 90 min [2, 6]: 3.3 ng/mL
Plasma concentration of the vitamin after dialysis for 0 min (Baseline) [2, 9]: 5.8 ng/mL
Plasma concentration of the vitamin after dialysis for 45 min [2, 9]: 32.2 ng/mL
Plasma concentration of the vitamin after dialysis for 90 min [2, 9]: 39.8 ng/mL
Plasma concentration of the vitamin after dialysis for 0 min (Baseline) [2, 10]: 5.8 ng/mL
Plasma concentration of the vitamin after dialysis for 45 min [2, 10]: 256.5 ng/mL
Plasma concentration of the vitamin after dialysis for 90 min [2, 10]: 272.2 ng/mL
Compound: Nc1nc2ncc(CNc3ccc(C(=O)N[C@@H](CCC(=O)O)C(=O)O)cc3)nc2c(=O)[nH]1 [Folic acid, folic acid]
Plasma concentration in hemodialysis patients receiving supplementation in high doses ([1]; 15 mg folic acid daily for 8 weeks, predialysis, mean ± SD): 927 ± 575 μg/L with 15

Compound: O=C1O[C@H]([C@@H](O)CO)C(O)=C1O [Ascorbic acid (vit C), ascorbic acid]
Plasma concentration in hemodialysis patients receiving supplementation in high doses ([1]; 500 mg ascorbic acid/day for 2 weeks, mean ± SE): 28 ± 2 mg/L (mean ± SE),
Plasma concentration in hemodialysis patients receiving supplementation in high doses, Range ([1]; 500 mg ascorbic acid/day for 2 weeks, range): Range: 15-37 mg/L,

Compound: C[N+](C)(C)C[C@H](O)CC(=O)[O-] [L-carnitine]
patients showing global improvement in clinical status ([3]; 20 mg/kg intravenous after each hemodialysis session for 6 months, control group 18%): 50%
clinical effects of carnitine administration ([3]; chronic hemodialysis patients): improvement in intradialytic hypotension, muscle cramps, exercise capacity, a sense of well being
fraction of the administered dose excreted in the urine [4]: 58-65%
solubility in water [5]: water soluble
Free carnitine plasma concentration in hemodialysis patients receiving supplementation in high doses ([1]; 20 mg/Kg L-carnitine intravenously three times a week following hemodialysis for 6 months, mean ± SE): Free carnitine 250 ± 11 μmol/L
Fraction of the plasma content that is protein bound (binding in words) (plasma proteins): not bound

Compound: Cc1ncc(CO)c(CO)c1O.Cl [pyridoxine hydrochloride]
effect of addition to the dialysate on plasma PLP concentration ([2]; assay specific for esters such as PLP, does not measure pyridoxine): did not result in an increase in PLP concentration

Compound: cyanocobalamin [Vitamin B12]
solubility in water [5]: soluble in water
Plasma concentration in hemodialysis patients receiving supplementation in high doses ([1]; vitamin B12, Bostom et al., predialysis, mean ± SD): 1.3 ± 0.4 ng/mL
Fraction of the plasma content that is protein bound (binding in words) (plasma proteins): Protein bound

— patent US6537976B1, “Dialysis solutions containing water soluble vitamins and nutrients” (priority 1997, dated 2003)
